Assay results reported in PubChem BioAssay AID2060898 (Molecular Pharmacology Branch, DTP, NCI, 2025).

Test system: 616215-338-R-J1-PDC complex spheroid viability
Assay: Anticancer human tumor 616215-338-R-J1-PDC patient-derived colon adenocarcinoma cell line growth inhibition [RAS]
Details: for IC50: curve of first compound; for viability, T/C: stronger effect = lower value
In short: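 Tumour cells grown as complex spheroids with HUVEC endothelial cells and mesenchymal stem cells, treated with RAS pathway inhibitor combinations. Each agent spans half-log steps from near clinical Cmax, or 10 microM where Cmax is unknown.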

[1] = second compound 0.000949 µM, first compound 0.0316 µM
[2] = second compound 0.000949 µM, first compound 0.1 µM
[3] = second compound 0.000949 µM, first compound 0.316 µM
[4] = second compound 0.000949 µM, first compound 1 µM
[5] = second compound 0.000949 µM, first compound 3.16 µM
[6] = second compound 0.000949 µM, first compound 10 µM
[7] = second compound 0.003 µM, first compound 0.0316 µM
[8] = second compound 0.003 µM, first compound 0.1 µM
[9] = second compound 0.003 µM, first compound 0.316 µM
[10] = second compound 0.003 µM, first compound 1 µM
[11] = second compound 0.003 µM, first compound 3.16 µM
[12] = second compound 0.003 µM, first compound 10 µM
[13] = second compound 0.00949 µM, first compound 0.0316 µM
[14] = second compound 0.00949 µM, first compound 0.1 µM
[15] = second compound 0.00949 µM, first compound 0.316 µM
[16] = second compound 0.00949 µM, first compound 1 µM
[17] = second compound 0.00949 µM, first compound 3.16 µM
[18] = second compound 0.00949 µM, first compound 10 µM
[19] = second compound 0.03 µM, first compound 0.0316 µM
[20] = second compound 0.03 µM, first compound 0.1 µM
[21] = second compound 0.03 µM, first compound 0.316 µM
[22] = second compound 0.03 µM, first compound 1 µM
[23] = second compound 0.03 µM, first compound 3.16 µM
[24] = second compound 0.03 µM, first compound 10 µM
[25] = second compound 0.0949 µM, first compound 0.0316 µM
[26] = second compound 0.0949 µM, first compound 0.1 µM
[27] = second compound 0.0949 µM, first compound 0.316 µM
[28] = second compound 0.0949 µM, first compound 1 µM
[29] = second compound 0.0949 µM, first compound 3.16 µM
[30] = second compound 0.0949 µM, first compound 10 µM
[31] = second compound 0.3 µM, first compound 0.0316 µM
[32] = second compound 0.3 µM, first compound 0.1 µM
[33] = second compound 0.3 µM, first compound 0.316 µM
[34] = second compound 0.3 µM, first compound 1 µM
[35] = second compound 0.3 µM, first compound 3.16 µM
[36] = second compound 0.3 µM, first compound 10 µM
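Also: spheroids exposed to agents for seven days before viability readout.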
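For viability, T/C in this document: 100% = DMSO vehicle control viability.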

Structure (SMILES): CCC(CC)c1cc(NC2CCC(N)C2)n2nccc2n1 (stereo unspecified) + CCn1c(-c2cc(N3CCN(C)CC3)cnc2C(C)OC)c2c3cc(ccc31)-c1csc(n1)CC(NC(=O)C1CC1C)C(=O)N1CCCC(N1)C(=O)OCC(C)(C)C2
- IC50 (second compound 0.000949 µM): 1830 nM
- IC50 (second compound 0.003 µM): 1880 nM
- IC50 (second compound 0.00949 µM): 1590 nM
- IC50 (second compound 0.03 µM): 1130 nM
- IC50 (second compound 0.0949 µM): < 31.6 nM
- IC50 (second compound 0.3 µM): < 31.6 nM
- viability, T/C [1]: 122%
- viability, T/C [2]: 113%
- viability, T/C [3]: 95%
- viability, T/C [4]: 105%
- viability, T/C [5]: 0.4%
- viability, T/C [6]: 0.24%
- viability, T/C [7]: 109%
- viability, T/C [8]: 108%
- viability, T/C [9]: 116%
- viability, T/C [10]: 110%
- viability, T/C [11]: 0.37%
- viability, T/C [12]: 0.22%
- viability, T/C [13]: 80.7%
- viability, T/C [14]: 92.2%
- viability, T/C [15]: 72.6%
- viability, T/C [16]: 88.4%
- viability, T/C [17]: 0.29%
- viability, T/C [18]: 0.22%
- viability, T/C [19]: 50.2%
- viability, T/C [20]: 55.3%
- viability, T/C [21]: 56.5%
- viability, T/C [22]: 62.5%
- viability, T/C [23]: 0.28%
- viability, T/C [24]: 0.2%
- viability, T/C [25]: 41.6%
- viability, T/C [26]: 39.9%
- viability, T/C [27]: 51.1%
- viability, T/C [28]: 49.3%
- viability, T/C [29]: 0.28%
- viability, T/C [30]: 0.23%
- viability, T/C [31]: 30.5%
- viability, T/C [32]: 38.5%
- viability, T/C [33]: 45.7%
- viability, T/C [34]: 47.9%
- viability, T/C [35]: 0.33%
- viability, T/C [36]: 0.27%

Structure (SMILES): Cc1nc(N2CCC3(CC2)COC(C)C3N)c(CO)nc1Sc1ccnc(N)c1Cl (stereo unspecified) + CCn1c(-c2cc(N3CCN(C)CC3)cnc2C(C)OC)c2c3cc(ccc31)-c1csc(n1)CC(NC(=O)C1CC1C)C(=O)N1CCCC(N1)C(=O)OCC(C)(C)C2
- IC50 (second compound 0.000949 µM): > 10000 nM
- IC50 (second compound 0.003 µM): 1670 nM
- IC50 (second compound 0.00949 µM): 214 nM
- IC50 (second compound 0.03 µM): < 31.6 nM
- IC50 (second compound 0.0949 µM): < 31.6 nM
- IC50 (second compound 0.3 µM): < 31.6 nM
- viability, T/C [1]: 123%
- viability, T/C [2]: 106%
- viability, T/C [3]: 85.6%
- viability, T/C [4]: 75.6%
- viability, T/C [5]: 63.1%
- viability, T/C [6]: 61.9%
- viability, T/C [7]: 118%
- viability, T/C [8]: 92.5%
- viability, T/C [9]: 66.4%
- viability, T/C [10]: 49.7%
- viability, T/C [11]: 54.9%
- viability, T/C [12]: 39.1%
- viability, T/C [13]: 71%
- viability, T/C [14]: 55.4%
- viability, T/C [15]: 46.9%
- viability, T/C [16]: 42.6%
- viability, T/C [17]: 44.2%
- viability, T/C [18]: 38%
- viability, T/C [19]: 43.8%
- viability, T/C [20]: 47.5%
- viability, T/C [21]: 46.9%
- viability, T/C [22]: 39.9%
- viability, T/C [23]: 45.5%
- viability, T/C [24]: 36.6%
- viability, T/C [25]: 38.9%
- viability, T/C [26]: 37.5%
- viability, T/C [27]: 40.6%
- viability, T/C [28]: 40.3%
- viability, T/C [29]: 44.2%
- viability, T/C [30]: 46.6%
- viability, T/C [31]: 36.7%
- viability, T/C [32]: 40.9%
- viability, T/C [33]: 47.3%
- viability, T/C [34]: 39.1%
- viability, T/C [35]: 44.7%
- viability, T/C [36]: 37.1%

Structure (SMILES): NC1c2ccccc2OC12CCN(c1cnc3c(N4CCCc5ncccc54)n[nH]c3n1)CC2 (stereo unspecified) + CCn1c(-c2cc(N3CCN(C)CC3)cnc2C(C)OC)c2c3cc(ccc31)-c1csc(n1)CC(NC(=O)C1CC1C)C(=O)N1CCCC(N1)C(=O)OCC(C)(C)C2
- IC50 (second compound 0.000949 µM): 2240 nM
- IC50 (second compound 0.003 µM): 228 nM
- IC50 (second compound 0.00949 µM): < 31.6 nM
- IC50 (second compound 0.03 µM): < 31.6 nM
- IC50 (second compound 0.0949 µM): < 31.6 nM
- IC50 (second compound 0.3 µM): < 31.6 nM
- viability, T/C [1]: 81.9%
- viability, T/C [2]: 69.7%
- viability, T/C [3]: 60%
- viability, T/C [4]: 55.5%
- viability, T/C [5]: 51.2%
- viability, T/C [6]: 40.2%
- viability, T/C [7]: 73.5%
- viability, T/C [8]: 60.6%
- viability, T/C [9]: 44.6%
- viability, T/C [10]: 41.9%
- viability, T/C [11]: 35.2%
- viability, T/C [12]: 37.1%
- viability, T/C [13]: 49.4%
- viability, T/C [14]: 48.4%
- viability, T/C [15]: 42.9%
- viability, T/C [16]: 42.2%
- viability, T/C [17]: 36.4%
- viability, T/C [18]: 31.1%
- viability, T/C [19]: 38.7%
- viability, T/C [20]: 34.9%
- viability, T/C [21]: 33.9%
- viability, T/C [22]: 40.1%
- viability, T/C [23]: 35.2%
- viability, T/C [24]: 30.5%
- viability, T/C [25]: 35.9%
- viability, T/C [26]: 42.6%
- viability, T/C [27]: 47.9%
- viability, T/C [28]: 42.2%
- viability, T/C [29]: 44.2%
- viability, T/C [30]: 34.6%
- viability, T/C [31]: 51.7%
- viability, T/C [32]: 40.5%
- viability, T/C [33]: 44.6%
- viability, T/C [34]: 41.1%
- viability, T/C [35]: 45.3%
- viability, T/C [36]: 32.4%
